Results from BindingDB's records for doi:10.1016/j.bmcl.2006.01.032 (Central Pharmaceutical Research Institute, 2006).

Experiment: Inhibition of HCV RNA replication in Huh5-2 cells after 48 hrs

EC50 | SMILES
1.6 µM | O=C(O)c1ccc2c(c1)nc(-c1ccc(OC(c3ccc(F)cc3)c3ccc(F)cc3)cc1F)n2C1CCCCC1 [2-(4-(bis(4-fluorophenyl)methoxy)-2-fluorophenyl)-1-cyclohexyl-1H-benzo[d]imidazole-5-carboxylic acid]
2.6 µM | O=C(O)c1ccc2c(c1)nc(-c1ccc(OC(c3cccnc3)c3cccnc3)cc1F)n2C1CCCCC1 [1-Cyclohexyl-2-[4-(di-pyridin-3-yl-methoxy)-2-fluoro-phenyl]-1H-benzoimidazole-5-carboxylic acid]
1.1 µM | O=C(O)c1ccc2c(c1)nc(-c1ccc(OC(c3ccccc3)c3cccnc3)cc1F)n2C1CCCCC1 (stereo not given) [1-Cyclohexyl-2-[2-fluoro-4-(phenyl-pyridin-3-yl-methoxy)-phenyl]-1H-benzoimidazole-5-carboxylic acid]
3.6 µM | O=C(O)c1ccc2c(c1)nc(-c1ccc(OC(c3ccc(Cl)cc3)c3ccc(Cl)cc3)cc1)n2C1CCCCC1 [2-(4-(bis(4-chlorophenyl)methoxy)phenyl)-1-cyclohexyl-1H-benzo[d]imidazole-5-carboxylic acid]
1.9 µM | O=C(O)c1ccc2c(c1)nc(-c1ccc(OC(c3ccccc3)c3ccccc3)cc1F)n2C1CCCCC1 [2-(4-(benzhydryloxy)-2-fluorophenyl)-1-cyclohexyl-1H-benzo[d]imidazole-5-carboxylic acid]
2.6 µM | O=C(O)c1ccc2c(c1)nc(-c1ccc(OC(c3ccccc3)c3ccccc3)cc1)n2C1CCCCC1 [2-(4-(benzhydryloxy)phenyl)-1-cyclohexyl-1H-benzo[d]imidazole-5-carboxylic acid]
1.2 µM | CN(C)C(=O)c1ccc(C(Oc2ccc(-c3nc4cc(C(=O)O)ccc4n3C3CCCCC3)c(F)c2)c2ccc(C(=O)N(C)C)cc2)cc1 [2-{4-[Bis-(4-dimethylcarbamoyl-phenyl)-methoxy]-2-fluoro-phenyl}-1-cyclohexyl-1H-benzoimidazole-5-carboxylic acid]
2.2 µM | O=C(O)c1ccc2c(c1)nc(-c1ccc(OC(c3ccc(F)cc3)c3ccc(F)cc3)cc1)n2C1CCCCC1 [2-(4-(bis(4-fluorophenyl)methoxy)phenyl)-1-cyclohexyl-1H-benzo[d]imidazole-5-carboxylic acid]
3.7 µM | Cc1ccc(C(Oc2ccc(-c3nc4cc(C(=O)O)ccc4n3C3CCCCC3)cc2)c2ccc(C)cc2)cc1 [1-cyclohexyl-2-(4-(dip-tolylmethoxy)phenyl)-1H-benzo[d]imidazole-5-carboxylic acid]
2.8 µM | O=C(O)c1ccc2c(c1)nc(-c1ccc(OC(c3cccc(F)c3)c3cccc(F)c3)cc1)n2C1CCCCC1 [2-(4-(bis(3-fluorophenyl)methoxy)phenyl)-1-cyclohexyl-1H-benzo[d]imidazole-5-carboxylic acid]
